# Source: patent publication US11807907B2, “Method for diagnosing and treating subjects having single nucleotide polymorphisms in chromosome 2, 2:107,510,000-107,540,000 locus” (NEURIM PHARMACEUTICALS (1991) LTD., priority 2021, dated 2023)
# Marks after values point to notes of the source that are not given here.
# Columns and labels:
# 5HT1a [1] = molecular target: T1, 5HT1a (Homo sapiens, UniProt P08908); assay: 5-HT receptor radioligand binding assay, 5-HT-1a; parameters: expressed in transfected cells; host or cells: HEK-293; conditions: HEK-293 cells, 3H-OH-DPAT, read-out: IC50 (concentration causing 50% inhibition of binding)
# T1 sequence (P08908 1-422): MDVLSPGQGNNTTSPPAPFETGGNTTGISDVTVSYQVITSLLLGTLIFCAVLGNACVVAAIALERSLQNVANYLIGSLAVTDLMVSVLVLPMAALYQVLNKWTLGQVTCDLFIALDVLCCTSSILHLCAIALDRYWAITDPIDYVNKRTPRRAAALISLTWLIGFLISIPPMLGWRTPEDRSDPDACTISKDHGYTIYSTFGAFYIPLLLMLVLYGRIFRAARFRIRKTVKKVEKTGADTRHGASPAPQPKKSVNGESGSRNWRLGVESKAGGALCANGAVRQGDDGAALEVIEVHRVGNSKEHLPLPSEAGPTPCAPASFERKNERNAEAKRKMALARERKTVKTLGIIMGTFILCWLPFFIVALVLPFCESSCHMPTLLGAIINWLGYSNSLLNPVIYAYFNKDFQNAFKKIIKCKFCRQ
# Experimental: (§1) For receptor binding assays, stably expressing 5-HT1a, 1b, 1d and 2c receptors cells (HEK-293, rat cerebral cortex, CHO and HEK-293, respectively) were incubated with 0.3 or 1 nM of their respective radioligand (^3H—OH-DPAT, ^125I CYP, ^3H serotonin and ^3H-mesulergine) alone or in the presence of 1 nM to 10 μM of piromelatine. The bound radioligand was assessed. Non-specific binding was evaluated under the reaction contained with 8-OH-PTA, serotonin and RS-10221 (8-[5-(2,4-Dimethoxy-5-(4-trifluoromethylphenylsulphonamido)phenyl-5-oxopentyl]-1,3,8-triazaspiro[4.5]decane-2,4-dione hydrochloride).
# 5-HT1b = 5-HT1b (Homo sapiens, UniProt P28222); assay: Functional assay (cellular dielectric spectroscopy, impedance), 5-HT1b; assay type: cell-based
# 5-HT1b, sequence (P28222 whole entry, species assumed): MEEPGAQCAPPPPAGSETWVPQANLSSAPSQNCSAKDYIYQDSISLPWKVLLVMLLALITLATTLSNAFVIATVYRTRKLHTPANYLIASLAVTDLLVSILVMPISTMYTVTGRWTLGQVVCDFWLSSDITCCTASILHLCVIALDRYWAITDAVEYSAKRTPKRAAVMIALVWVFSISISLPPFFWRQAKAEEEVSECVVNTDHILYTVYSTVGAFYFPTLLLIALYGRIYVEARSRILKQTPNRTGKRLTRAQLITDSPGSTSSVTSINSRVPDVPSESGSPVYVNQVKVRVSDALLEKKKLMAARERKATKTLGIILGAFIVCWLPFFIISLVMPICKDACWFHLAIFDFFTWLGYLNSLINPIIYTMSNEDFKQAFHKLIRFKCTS
# From the text: (§2) For the functional assay, Homogeneous Time Resolved Fluorescence (HTRF) was used to measure cAMP or IP1 as products of the functional agonist or antagonist binding of 5-HT1a, 2a,2b, 2c, 4e, 6, 7 to their respective ligand (8-OG-DPAT or serotonin). Cellular dielectric spectroscopy was used to measure impedance as the product of the functional agonist or antagonist binding of 5HT1b and determine their respective ligand (serotonin).
# [2] = test system: patients with early symptomatic Alzheimer's disease; assay: Randomized, placebo controlled study of piromelatine in patients with early symptomatic Alzheimer's disease (cNTB, ADAS-Cog14, NPI, PSQI), analysed by 2:107,510,000-107,540,000 locus polymorphism carrier status; assay type: in vivo, human; parameters: key: ns = non-significant effect; deter = deterioration compared to placebo; conditions: locus polymorphism carriers; 5, 20 and 50 mg daily for 26 weeks; compared to placebo
# Experimental: (§3) DNA extraction and SNP genotyping were performed as follows: For 107 patients, whole blood was collected at the time of enrollment, and genomic DNA was extracted from peripheral lymphocytes using a commercial kit. Variant genotyping of a combined Whole Genome and Whole Exome sequencing, was performed. The detection of variants associated with the response of the treatment was performed through a genome wide association study (GWAS) analysis (which is a known case-control paradigm). […] The general case-control allelic test was performed through a Cochran-Armitage trend test. […] The stratification was assessed by a complete-linkage hierarchical clustering using the pairwise population concordance as a constraint. […]
# (§4) To further explore the relationship between these paradoxical responses and other variables in the study, changes in ADAS-Cog14 and relationships with the other variables for the intermediate dose (20 mg) of piromelatine were analyzed (Table 2). […]
# (§5) To further explore the relationship between these paradoxical responses and other variables in the study, changes in cNTB, ADAS-Cog14 and PSQI for the low dose (5 mg) of piromelatine were analyzed (Table 3). […]
# [3] = test system: 60 different ion channels and receptors of different neurotransmitters and hormones; assay: Full profile of binding to an additional 60 ion channels and receptors; conditions: 10 μM of piromelatine; none of the 60 assays
# Experimental: A full profile of binding parameters to an additional 60 different ion channels and receptors of different neurotransmitters and hormones was performed (data not shown because none of the 60 receptor assays yielded a significant (>50%) inhibition by 10 μM of piromelatine).
# 5HT1a [4] = molecular target: T1, 5HT1a; assay: Functional assay (HTRF, cAMP or IP1), 5HT1a; assay type: cell-based
# From the text: as §2
# 5-HT-6 receptor = 5-HT-6 receptor (Homo sapiens, UniProt P50406); assay: 5-HT receptor binding, 5-HT-6; conditions: read-out: IC50 (concentration causing 50% inhibition of binding)
# 5-HT-6 receptor, sequence (P50406 whole entry): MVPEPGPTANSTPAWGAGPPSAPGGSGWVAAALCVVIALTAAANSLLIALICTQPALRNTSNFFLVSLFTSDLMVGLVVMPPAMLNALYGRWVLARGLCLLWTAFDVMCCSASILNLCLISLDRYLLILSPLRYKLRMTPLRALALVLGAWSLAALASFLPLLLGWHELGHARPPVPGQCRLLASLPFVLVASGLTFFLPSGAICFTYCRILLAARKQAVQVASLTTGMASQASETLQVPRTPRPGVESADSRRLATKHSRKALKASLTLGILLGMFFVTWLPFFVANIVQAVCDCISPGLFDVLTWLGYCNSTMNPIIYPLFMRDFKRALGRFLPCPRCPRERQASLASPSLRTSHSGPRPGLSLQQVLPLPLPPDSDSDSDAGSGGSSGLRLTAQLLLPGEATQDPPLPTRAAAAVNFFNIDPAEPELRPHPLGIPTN
# 5-HT1d = 5-HT1d (Homo sapiens, UniProt P28221); assay: Functional assay, 5-HT1d; assay type: cell-based
# 5-HT1d, sequence (P28221 whole entry, species assumed): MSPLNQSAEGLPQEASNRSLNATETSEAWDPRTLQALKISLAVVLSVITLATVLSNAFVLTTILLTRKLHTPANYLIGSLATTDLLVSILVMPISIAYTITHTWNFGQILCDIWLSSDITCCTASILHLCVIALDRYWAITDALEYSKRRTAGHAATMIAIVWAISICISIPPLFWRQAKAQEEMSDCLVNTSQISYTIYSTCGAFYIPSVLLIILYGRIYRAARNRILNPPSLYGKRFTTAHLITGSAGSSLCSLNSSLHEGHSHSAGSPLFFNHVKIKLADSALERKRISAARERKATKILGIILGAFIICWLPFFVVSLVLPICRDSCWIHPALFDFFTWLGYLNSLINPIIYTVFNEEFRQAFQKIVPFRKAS
# From the text: [Worded in the source for another target; this target is reported under the same test.] as §2
# 5-HT-7 receptor = 5-HT-7 receptor (Homo sapiens, UniProt P34969); assay: 5-HT receptor binding, 5-HT-7; conditions: read-out: IC50 (concentration causing 50% inhibition of binding)
# 5-HT-7 receptor, sequence (P34969 whole entry): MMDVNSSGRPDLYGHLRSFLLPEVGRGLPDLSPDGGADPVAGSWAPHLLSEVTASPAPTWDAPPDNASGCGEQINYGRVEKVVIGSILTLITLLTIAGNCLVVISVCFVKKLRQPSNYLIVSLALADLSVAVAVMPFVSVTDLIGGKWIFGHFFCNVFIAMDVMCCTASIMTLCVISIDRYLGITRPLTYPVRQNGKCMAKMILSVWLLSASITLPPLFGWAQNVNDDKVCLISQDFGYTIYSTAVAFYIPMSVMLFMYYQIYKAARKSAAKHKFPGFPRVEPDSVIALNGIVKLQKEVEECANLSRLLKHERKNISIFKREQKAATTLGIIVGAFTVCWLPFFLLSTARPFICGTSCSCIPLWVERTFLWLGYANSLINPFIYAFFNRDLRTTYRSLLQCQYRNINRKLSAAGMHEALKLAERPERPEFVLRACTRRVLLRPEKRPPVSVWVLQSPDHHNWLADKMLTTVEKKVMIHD
# [5] = test system: patients with early symptomatic Alzheimer's disease; assay: Randomized, placebo controlled study of piromelatine in patients with early symptomatic Alzheimer's disease (cNTB, ADAS-Cog14, NPI, PSQI), analysed by 2:107,510,000-107,540,000 locus polymorphism carrier status; assay type: in vivo, human; parameters: key to Improvement, cNTB / Improvement, PSQI: ns = non-significant effect; deter = deterioration compared to placebo
# Experimental: DNA extraction and SNP genotyping were performed as follows: For 107 patients, whole blood was collected at the time of enrollment, and genomic DNA was extracted from peripheral lymphocytes using a commercial kit. Variant genotyping of a combined Whole Genome and Whole Exome sequencing, was performed. The detection of variants associated with the response of the treatment was performed through a genome wide association study (GWAS) analysis (which is a known case-control paradigm). […] The general case-control allelic test was performed through a Cochran-Armitage trend test. […] The stratification was assessed by a complete-linkage hierarchical clustering using the pairwise population concordance as a constraint. The SNP calling was done on the aligned BAM files using DRAGEN: support.illumina.com/help/DRAGEN_Germline_OLH_1000000083701/Content/Source/Informatics/Apps/DRAGENGermlineSmallVarCaller_appDRAG.htm and filter SNPs using VQSR: gatk.broadinstitute.org/hc/en-us/articles/360035531612-Variant-Quality-Score-Recalibration-VQSR.
# To further explore the relationship between these paradoxical responses and other variables in the study, changes in ADAS-Cog14 and relationships with the other variables for the intermediate dose (20 mg) of piromelatine were analyzed (Table 2). […] Moreover, in this trial, 39% of patients treated with the 20 mg piromelatine that were not carriers of the 2:107,510,000-107,540,000 locus polymorphism improved (decreased)>4 points in the ADAS-Cog14 and thus were considered “responders (beneficial response)” vs. only 8% of the patients treated with the 20 mg piromelatine that were carriers of the 2:107,510,000-107,540,000 locus polymorphism (Table 2).
# To further explore the relationship between these paradoxical responses and other variables in the study, changes in cNTB, ADAS-Cog14 and PSQI for the low dose (5 mg) of piromelatine were analyzed (Table 3). […] However, only carriers of a 2:107,510,000-107,540,000 locus polymorphism improved on the computerized Neuropsychological Test Battery (cNTB) upon treatment with the 5 mg piromelatine dose and the main performance domains being the episodic memory domain composite score and attention domain composite score.
# [6] = test system: patients with early symptomatic Alzheimer's disease; assay: as above; assay type: in vivo, human; parameters: key: ns = non-significant effect; deter = deterioration; conditions: carriers (N = 12); 20 mg daily for 26 weeks
# Experimental: as §3, §4, §5
# 5-HT-2c receptor = molecular target: T2, 5-HT-2c receptor (Homo sapiens, UniProt P28335); assay: 5-HT receptor radioligand binding assay, 5-HT-2c; conditions: HEK-293 cells, 3H-mesulergine, read-out: IC50 (concentration causing 50% inhibition of binding)
# T2 construct: expressed in transfected cells; host or cells: HEK-293
# T2 sequence (P28335 33-458): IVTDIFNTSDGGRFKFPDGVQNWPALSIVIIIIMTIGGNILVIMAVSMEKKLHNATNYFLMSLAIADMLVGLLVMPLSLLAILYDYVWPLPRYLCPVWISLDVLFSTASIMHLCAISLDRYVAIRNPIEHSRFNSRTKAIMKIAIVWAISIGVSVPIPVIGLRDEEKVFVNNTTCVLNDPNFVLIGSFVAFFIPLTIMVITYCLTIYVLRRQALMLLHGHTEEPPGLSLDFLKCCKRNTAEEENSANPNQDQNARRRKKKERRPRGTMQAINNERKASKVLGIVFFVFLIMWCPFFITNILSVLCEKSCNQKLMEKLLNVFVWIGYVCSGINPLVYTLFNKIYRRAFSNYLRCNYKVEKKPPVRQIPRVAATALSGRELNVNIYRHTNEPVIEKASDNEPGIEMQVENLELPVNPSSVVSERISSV
# Experimental: as §1
# 5-HT-1d receptor = molecular target: T3, 5-HT-1d receptor (Rattus norvegicus, UniProt P28565); assay: 5-HT receptor radioligand binding assay, 5-HT-1d; conditions: CHO cells, 3H serotonin, read-out: IC50 (concentration causing 50% inhibition of binding)
# T3 construct: expressed in transfected cells; host or cells: CHO
# T3 sequence (P28565 whole entry): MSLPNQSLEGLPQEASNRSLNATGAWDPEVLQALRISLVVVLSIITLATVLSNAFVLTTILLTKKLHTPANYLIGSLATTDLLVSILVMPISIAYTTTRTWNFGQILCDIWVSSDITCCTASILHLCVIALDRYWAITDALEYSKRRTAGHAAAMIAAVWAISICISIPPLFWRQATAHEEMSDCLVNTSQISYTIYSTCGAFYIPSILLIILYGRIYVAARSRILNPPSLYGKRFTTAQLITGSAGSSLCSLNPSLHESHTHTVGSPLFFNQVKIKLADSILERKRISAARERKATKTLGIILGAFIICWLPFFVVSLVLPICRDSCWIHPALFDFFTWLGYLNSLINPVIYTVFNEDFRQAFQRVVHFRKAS
# Experimental: as §1
# 5-HT-4 receptor = 5-HT-4 receptor (Homo sapiens, UniProt Q13639); assay: 5-HT receptor binding, 5-HT-4; conditions: read-out: IC50 (concentration causing 50% inhibition of binding)
# 5-HT-4 receptor, sequence (Q13639 whole entry): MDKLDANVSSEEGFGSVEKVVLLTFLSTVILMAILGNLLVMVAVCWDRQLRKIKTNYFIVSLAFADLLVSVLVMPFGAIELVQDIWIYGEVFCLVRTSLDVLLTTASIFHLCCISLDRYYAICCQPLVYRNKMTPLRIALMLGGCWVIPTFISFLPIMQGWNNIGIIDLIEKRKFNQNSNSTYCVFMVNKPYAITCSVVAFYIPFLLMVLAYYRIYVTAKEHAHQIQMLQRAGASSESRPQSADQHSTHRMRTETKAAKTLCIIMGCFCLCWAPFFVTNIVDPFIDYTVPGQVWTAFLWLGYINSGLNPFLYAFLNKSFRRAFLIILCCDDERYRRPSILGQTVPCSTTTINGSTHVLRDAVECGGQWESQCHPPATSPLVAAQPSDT
# 5-HT-1b receptor = molecular target: T4, 5-HT-1b receptor (Rattus norvegicus, UniProt P28564); assay: 5-HT receptor radioligand binding assay, 5-HT-1b; conditions: rat cerebral cortex, 125I CYP, read-out: IC50 (concentration causing 50% inhibition of binding)
# T4 construct: stably expressing 5-HT1a, 1b, 1d and 2c receptors cells (HEK-293, rat cerebral cortex, CHO and HEK-293, respectively); from tissue; host or cells: rat cerebral cortex
# T4 sequence (P28564 whole entry): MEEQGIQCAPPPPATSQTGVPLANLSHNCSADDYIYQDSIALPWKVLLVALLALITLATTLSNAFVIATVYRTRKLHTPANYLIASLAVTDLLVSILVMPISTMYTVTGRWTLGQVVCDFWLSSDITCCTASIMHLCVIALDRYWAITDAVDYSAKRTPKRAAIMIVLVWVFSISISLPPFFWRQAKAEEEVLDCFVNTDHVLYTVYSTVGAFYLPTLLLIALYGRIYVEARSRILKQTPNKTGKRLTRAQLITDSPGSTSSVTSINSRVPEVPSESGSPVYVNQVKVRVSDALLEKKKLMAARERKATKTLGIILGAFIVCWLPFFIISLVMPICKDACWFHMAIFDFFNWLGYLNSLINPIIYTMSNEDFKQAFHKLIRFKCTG
# Experimental: as §1
# 5-HT-2a receptor = 5-HT-2a receptor (Homo sapiens, UniProt P28223); assay: 5-HT receptor binding, 5-HT-2a; conditions: read-out: IC50 (concentration causing 50% inhibition of binding)
# 5-HT-2a receptor, sequence (P28223 whole entry): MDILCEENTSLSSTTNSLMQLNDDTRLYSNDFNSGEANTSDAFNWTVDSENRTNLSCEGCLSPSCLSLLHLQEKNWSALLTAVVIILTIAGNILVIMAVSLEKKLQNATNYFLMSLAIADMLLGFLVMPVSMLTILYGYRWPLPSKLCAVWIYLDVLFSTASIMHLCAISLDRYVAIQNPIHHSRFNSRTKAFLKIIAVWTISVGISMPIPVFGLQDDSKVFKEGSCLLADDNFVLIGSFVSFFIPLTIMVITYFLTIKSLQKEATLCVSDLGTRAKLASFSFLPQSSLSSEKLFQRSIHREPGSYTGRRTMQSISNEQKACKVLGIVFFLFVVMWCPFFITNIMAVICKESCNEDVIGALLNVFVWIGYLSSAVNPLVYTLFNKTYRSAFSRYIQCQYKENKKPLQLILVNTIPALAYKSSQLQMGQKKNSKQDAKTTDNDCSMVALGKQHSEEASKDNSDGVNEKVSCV
# [7] = carriers (N = 12), 20 mg daily for 26 weeks
# [8] = carriers, 5 mg daily for 26 weeks
# [9] = carriers, 5 mg daily for 26 weeks (N = 5)
# [10] = locus polymorphism carriers, 5, 20 and 50 mg daily for 26 weeks, N = 19
# [11] = locus polymorphism non-carriers, 5, 20 and 50 mg daily for 26 weeks, N = 59
# [12] = locus polymorphism non-carriers, 5, 20 and 50 mg daily for 26 weeks, compared to placebo
# [13] = non-carriers (N = 23), 20 mg daily for 26 weeks
# [14] = non-carriers, 5 mg daily for 26 weeks
# [15] = non-carriers, 5 mg daily for 26 weeks (N = 19)
# [16] = whole study population n=352, 5, 20 and 50 mg daily for 6 months
smiles,measurement,setting,value
"COc1ccc2[nH]cc(CCNC(=O)c3cc(=O)cco3)c2c1 [piromelatine, N-(2-(5-methoxy-1H-indol-3-yl)ethyl)-4-oxo-4H-pyran-2-carboxamide]",IC50,5HT1a [1],600 nM
same,agonist activity in the functional assay,5-HT1b,Low agonist activity
same,"Improvement, ADAS-Cog14",[2],deter
same,inhibition in the 60 receptor assays,[3],≤ 50%
same,agonist activity in the functional assay,5HT1a [4],moderate agonist activity
same,IC50,5-HT-6 receptor,> 10 µM
same,agonist activity in the functional assay,5-HT1d,moderate agonist activity
same,IC50,5-HT-7 receptor,> 10 µM
same,ADAS-Cog14 % Responders (decrease ≥ 4),[5]; [7],8%
same,ADAS-Cog14 Change from baseline,[5]; [7],3.58
same,"Improvement, NPI",[5]; [7],yes
same,"Improvement, PSQI",[5]; [7],ns
same,"Improvement, cNTB",[5]; [7],yes
same,NPI Change from baseline,[5]; [7],−3.08
same,PSQI Change from baseline,[5]; [7],−0.17
same,cNTB Change from baseline,[5]; [7],0.44
same,"ADAS Cogl4, Cohen's d vs placebo > 0.2",[5]; [8],improvement
same,"PSQI, Cohen's d vs placebo > 0.2",[5]; [8],no improvement
same,"cNTB, Cohen's d vs placebo > 0.2",[5]; [8],improvement
same,ADAS Cogl4 Change from Baseline,[5]; [9],−6.40
same,PSQI Change from baseline,[5]; [9],−3.40
same,cNTB Change from baseline,[5]; [9],0.28
same,cNTB attention domain composite score,"[5]; carriers, 20 mg dose",improved
same,cNTB episodic memory domain composite score,"[5]; carriers, 20 mg dose",improved
same,ADAS-Cog14 Change from baseline,[5]; [10],0.63*
same,cNTB Change from baseline,[5]; [10],0.38*
same,"Improvement, cNTB","[5]; locus polymorphism carriers, 5, 20 and 50 mg daily for 26 weeks, compared to placebo",yes
same,ADAS-Cog14 Change from baseline,[5]; [11],−1.07*
same,cNTB Change from baseline,[5]; [11],−0.04
same,"Improvement, ADAS-Cog14",[5]; [12],yes
same,"Improvement, cNTB",[5]; [12],ns
same,ADAS-Cog14 % Responders (decrease ≥ 4),[5]; [13],39%
same,ADAS-Cog14 Change from baseline,[5]; [13],−2.91
same,"Improvement, ADAS-Cog14",[5]; [13],yes
same,"Improvement, NPI",[5]; [13],yes
same,"Improvement, PSQI",[5]; [13],yes
same,"Improvement, cNTB",[5]; [13],ns
same,NPI Change from baseline,[5]; [13],−2.70
same,PSQI Change from baseline,[5]; [13],−2.13
same,cNTB Change from baseline,[5]; [13],−0.06
same,"ADAS Cogl4, Cohen's d vs placebo > 0.20",[5]; [14],no improvement
same,"PSQI, Cohen's d vs placebo > 0.20",[5]; [14],improvement
same,"cNTB, Cohen's d vs placebo > 0.20",[5]; [14],deterioration
same,ADAS Cogl4 Change from Baseline,[5]; [15],1.11
same,PSQI Change from baseline,[5]; [15],−1.11
same,cNTB Change from baseline,[5]; [15],−0.21
same,"ADAS-Cog14, drug vs placebo",[5]; [16],no statistically significant differences
same,"global composite score of the cNTB, drug vs placebo",[5]; [16],no statistically significant differences
same,"Improvement, ADAS-Cog14",[6],deter
same,IC50,5-HT-2c receptor,2800 nM
same,IC50,5-HT-1d receptor,460 nM
same,IC50,5-HT-4 receptor,> 10 µM
same,IC50,5-HT-1b receptor,8 µM
same,IC50,5-HT-2a receptor,> 10 µM
